Assay results published in patent US20220323444A1, “Methods of Treating Advanced Prostate Cancer” (The Medical College of Wisconsin, Inc., priority 2019, published 2022).
pIC50: −log10 of the molar value.

Key:
Assay type in all cases: cell-based
CWR22Rv1 PC cells = experiment: Death / viability of CWR22Rv1 PC cells treated with Jak2 inhibitors
Protocol: (§1) We tested whether Stat5 regulation of AR mRNA and protein levels provides an opportunity to control AR levels pharmacologically by inhibition of Jak2 signaling. […] Finally, to evaluate the effect of PAC and FED on PC cell viability, CWR22Rv1 cells were treated with increasing concentrations of PAC or FED for 3 days.

[1] = tested on: FL-AR, AR-V7 and AR-V9 mRNA and AR protein levels in PC cells; experiment: AR mRNA (qRT-PCR) and AR / pYStat5 protein (immunoblot) in PC cells treated with Jak2 inhibitors; settings: for FL and AR-V AR mRNA and protein levels: CWR22Rv1 CRPC cell line, FIGS. 6A-6B
Protocol: Jak2 was inhibited for 3 days by Jak2 inhibitors AZD1480, gandotinib, pacritinib, baricitinib or fedratinib at indicated concentrations followed by RNA extraction and quantification of FL-AR, AR-V7 and AR-V9 mRNA levels by qRT-PCR.
Immunoblot analysis of AR expression in PC cells treated with increasing concentrations of Jak2 inhibitors AZD1480, gandotinib, pacritinib or baricitinib for 72 h.
as §1

[2] = tested on: Stat5 and Jak2 phosphorylation in PC cells; experiment: ENZ-induced Jak2-Stat5 phosphorylation in PC cells (IP and WB); settings: CWR22Pc, LAPC4 and CWR22Pc-ENZ-R cells; AZD1480 800 nM, 12 days
Protocol: CWR22Pc and LAPC4 PC cells were treated with ENZ or vehicle for the indicated periods of time. Levels of active Stat5 were determined by immunoprecipitation (IP) of Stat5 followed by immunoblotting (WB) for pStat5a/b and total Stat5. Whole cell lysates (WCL) were immunoblotted for pStat3, Stat3 and Actin. […] CWR22Pc and LAPC4 cells were transduced with lentiviral AR shRNA (shAR) or lenti-shCtrl for 3 days followed by treatment with ENZ or vehicle for 7 days at the indicated concentrations.
PC cells were cultured with ENZ or Jak2 inhibitor AZD1480 (800 nM) alone or in combination for 12 days. Expression levels of active Stat5 were determined by IP of Stat5 followed by WB for pStat5a/b and total Stat5. WCLs were immunoblotted for pStat3, Stat3 and Actin. […] Jak2 was suppressed by lentiviral Jak2 shRNA vs. shCtrl in PC cells for 3 days followed by ENZ or vehicle for 7 days. Active Stat5, Stat5 and Jak2 levels were evaluated by IP and WB, as depicted. […] PC cells were treated with ENZ or vehicle for 6 h at the indicated concentrations. Control cells were stimulated with prolactin (Prl) (10 nM) for 20 min as control for cytokine-induced Jak2 phosphorylation. […] Alternatively, PC cells were treated with ENZ or vehicle for 12 days or stimulated with Prl for 20 min at the indicated concentrations. Stat5 and Jak2 were IP:ed and WB:ed for pStat5, pJak2, tot Stat5, and total Jak2.
To investigate whether AR is required for ENZ induction of Stat5 signaling, we inhibited AR expression in CWR22Pc and LAPC4 cells by genetic knockdown using lentiviral expression of AR shRNA (FIG. 9C).
To further assess the involvement of Jak2 in ENZ-induced Stat5 activation, Jak2 was genetically knocked down by lentiviral expression of Jak2 shRNA in CWR22Pc and LAPC4 cells for 3 days followed by ENZ treatment for 7 days.

SMILES | pIC50 (CWR22Rv1 PC cells; 72 h, CWR22Rv1, at 3 days, read-out: IC50, induction of death of CWR22Rv1 PC cells) | FL and AR-V AR mRNA and protein levels [1] | ENZ-induced Stat5 phosphorylation [2] | induction of death of PC cells (CWR22Rv1 PC cells; FIG. 7D, 7E) | AR protein levels in PC cells ([1]; 72 h, immunoblot, FIG. 6B) | AR mRNA levels in PC cells ([1]; 3 days, qRT-PCR, FIG. 6A) | Stat5 phosphorylation ([1]; prostate cancer cells, FIG. 6B)
Cc1cc(Nc2cc(CN3CCOCC3)c3nc(C)c(Cc4ccc(Cl)cc4F)n3n2)n[nH]1 [gandotinib, 3-(4-Chloro-2-fluorobenzyl)-2-methyl-N-(5-methyl-1H-pyrazol-3-yl)-8-(morpholinomethyl)imidazo[1,2-b]pyridazin-6-amine] | 6.52 | dose-dependent reduction |  |  |  |  | 
Cc1cc(Nc2nc(N[C@@H](C)c3ncc(F)cn3)ncc2Cl)n[nH]1 [AZD1480, 5-chloro-2-N-[(1S)-1-(5-fluoropyrimidin-2-yl)ethyl]-4-N-(5-methyl-1H-pyrazol-3-yl)pyrimidine-2,4-diamine] |  | dose-dependent reduction | blocked ENZ-induced Stat5 phosphorylation |  |  |  | 
N#CCNC(=O)c1ccc(-c2ccnc(Nc3ccc(N4CCOCC4)cc3)n2)cc1 [momelotinib] |  | dose-dependent reduction |  | does not provide the same effect of beneficial induction of cell death | did not result in the suppression of AR protein levels | does not suppress AR expression in PC cells | does not inhibit Stat5 phosphorylation
CCS(=O)(=O)N1CC(CC#N)(n2cc(-c3ncnc4[nH]ccc34)cn2)C1 [baricitinib, 2-[1-Ethylsulfonyl-3-[4-(7H-pyrrolo[2,3-d]pyrimidin-4-yl)pyrazol-1-yl]azetidin-3-yl]acetonitrile] |  | dose-dependent reduction |  |  |  |  | 
